Experimental data: US10016423B2, “Solid forms of nilotinib hydrochloride” (Apotex Inc., priority 2014, dated 2018)

Assay: Comparative hygroscopicity testing (water content by Karl Fischer analysis)
Format: physicochemical
Conditions: for Water content of sample after testing: after 24 hours at 25° C. in desiccator containing saturated ammonium sulphate solution, 1 g sample in unstoppered vessel, KF analysis; for Increase in water content: after vs before 24 hours at 25° C. over saturated ammonium sulphate solution; for Water content of sample before testing: before hygroscopicity testing, Karl Fischer (KF) analysis
Protocol: The hygroscopicity of form APO-III as reported in WO 2014/059518 A1 was compared with the hygroscopicity of the form APO-VII of the present invention.
The hygroscopicity testing was conducted by placing 1 g of each sample in an unstoppered weighing vessel in a desiccator containing a saturated ammonium sulphate solution. The desiccator was placed in an oven at 25° C. for 24 hours. The water content was measured before and after the testing by Karl Fischer (KF) analysis.

| Structure (SMILES) | Water content of sample after testing [% w/w] | Increase in water content | Water content of sample before testing [% w/w] |
| --- | --- | --- | --- |
| Cc1cn(-c2cc(NC(=O)c3ccc(C)c(Nc4nccc(-c5cccnc5)n4)c3)cc(C(F)(F)F)c2)cn1.Cl [Form APO-III] | 3.5671 | 3.2795 | 0.2876 |
| Cc1cn(-c2cc(NC(=O)c3ccc(C)c(Nc4nccc(-c5cccnc5)n4)c3)cc(C(F)(F)F)c2)cn1.Cl [Form APO-VII] | 0.4757 | 0.1812 | 0.2945 |
